# Source: ChEMBL document CHEMBL3988442, “University of Dundee, Small-Polar-MMV Screening Library” (2021)
# Test system: not listed separately
# Experiment: microbe, parasite or virus in culture
# Conditions: Mycobacterium tuberculosis, 96 h, read-out: pIC50 (converted)
row,SMILES,IC50 [µM]
1,CC(=O)N1CCCC(c2ccc(Cc3ccccc3)cn2)C1 (stereo not given),23.5

# Target: Tryptophan--tRNA ligase (Mycobacterium tuberculosis (strain ATCC 25618 / H37Rv), UniProt P9WFT3)
# Experiment: Biochemical assay for Mt-TrpRS
# Type: functional
# Conditions: not given
# Sequence of Tryptophan--tRNA ligase (P9WFT3 whole entry): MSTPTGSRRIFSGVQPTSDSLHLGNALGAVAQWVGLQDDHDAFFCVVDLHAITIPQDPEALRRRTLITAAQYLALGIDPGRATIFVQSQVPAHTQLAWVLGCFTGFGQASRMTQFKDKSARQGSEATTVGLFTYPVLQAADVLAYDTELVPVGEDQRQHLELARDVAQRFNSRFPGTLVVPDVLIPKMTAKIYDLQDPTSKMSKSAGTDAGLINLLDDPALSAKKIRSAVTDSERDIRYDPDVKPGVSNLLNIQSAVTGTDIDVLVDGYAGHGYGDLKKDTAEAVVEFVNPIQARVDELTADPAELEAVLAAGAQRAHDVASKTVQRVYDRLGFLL
row,SMILES,IC50 [µM]
1,CC(=O)N1CCCC(c2ccc(Cc3ccccc3)cn2)C1 (stereo not given),> 195
2,CCc1nnc(CN2CCCCC2Cn2cncn2)o1 (stereo not given),> 195
3,CNc1nccnc1C1CCN(C(C)C)CC1,> 195
4,CN(C)C(=O)CN1CCO[C@H]2CN(Cc3ccoc3)C[C@H]21,> 195
5,Cc1c[nH]nc1C1CCN(S(=O)(=O)N(C)C)C1 (stereo not given),> 195
6,CC(C)c1ncc(CN2CCC(CO)C2)cn1 (stereo not given),> 195
7,O=C1CN(CC2CC2)Cc2nc(NCc3ccccc3)sc21,> 195
8,Cc1c[nH]nc1C1CCN(C(=O)C2CCCC2)C1 (stereo not given),> 195
9,Cc1cn(Cc2ccccc2)nc1N,> 195
10,O=C(c1ccco1)N1CCC2(CCCN(c3ncccn3)C2)C1 (stereo not given),> 195
11,COc1cc(N(C)CCC(O)c2ccccc2)ncn1 (stereo not given),> 195
12,Cc1cnn(CCCNC2Cc3ccccc3C2)c1,> 195
13,COc1cccc(C(=O)NC(c2ccccn2)[C@H]2CC[C@H](CN)CC2)c1 (stereo not given in full),> 195
14,COCC(=O)N1CCCC(c2cccc(-n3ccnc3)n2)C1 (stereo not given),> 195
15,Nc1nccnc1C1CN(Cc2ccc(OCC(=O)O)cc2)CCO1 (stereo not given),> 195
16,COc1cc(NC2CCCNC2)cc(OC)c1 (stereo not given),> 195
17,O=C([C@@H]1C[C@@H]2CCN(Cc3ccoc3)C[C@H]2O1)N1CCCC1,> 195
18,CN(CC1(O)CCN(c2ccccn2)C1)C(=O)Cc1ccsc1 (stereo not given),> 195
19,CCOc1ccc(N(C)Cc2nnc(C)o2)cc1,> 195
20,O=C(NCCN1CCOCC1)Nc1cnc2cc(Cl)ccc2c1O,> 195
21,O=C(c1cc2c(s1)CCCC2)N1CCc2nc(C3CCCN3)ncc2C1 (stereo not given),> 195
22,c1csc(CN2C[C@H](OCC3CC3)[C@H]3COC[C@H]32)n1,> 195
23,NCC(=O)N1CCCC1c1n[nH]cc1-c1ccccc1F (stereo not given),> 195
24,Cn1ccc(C(=O)N2CCOC(c3ccccn3)C2)cc1=O (stereo not given),> 195
25,Cc1cncc(CN2C[C@@H](O)[C@H](Oc3ccccc3)C2)c1,> 195
26,CC(NCc1c(C(C)C)nn(C)c1N1CCOCC1)C(=O)N(C)C (stereo not given),> 195

row,SMILES,IC50 [µM]
1,O=C(c1ccco1)N1C(CO)[C@]2(O)CC[C@H]1CC2 (stereo not given in full),> 195
2,CNc1cccc(C2CCCN(C(=O)c3cccnc3)C2)n1 (stereo not given),> 195
3,Cc1cc(N2CCC(c3n[nH]c4nccnc34)C2)ncn1 (stereo not given),> 195
4,N#Cc1cnc(N2CCC3(CC2)OCCO3)nc1N,> 195
5,O=C1NC(=O)c2c3c(nc(O)c21)CCCC3,> 195
6,COC(=O)CCCNC(=O)Nc1ccccc1OC,> 195
7,Cc1cccc(Cn2cc(C)c(N)n2)c1,> 195
8,CN1CCN(Cc2cn3c(n2)CN(Cc2ccncc2)CC3)CC1,> 195
9,O=C1CO[C@@H]2CN(S(=O)(=O)c3ccc(F)cc3)C[C@H]2N1,> 195
10,COc1cccc(S(=O)(=O)N2C[C@@H](O)[C@H](N(C)C)C2)c1,> 195
11,COc1cccc(CNc2cnn(CC(F)F)c2)c1,> 195
12,CCOC1CC2(CCN(Cc3nccn3C)CC2)C1,> 195
13,Cn1c(C(=O)NCC2(N)CCCC2)cc2ccccc21,> 195
14,COc1ccc(-c2cc(C3CCCNC3)ccn2)cc1 (stereo not given),> 195
15,O=C(N[C@@H]1CC[C@@H](n2ccnc2)[C@@H]1O)c1cc2c(s1)CCC2,> 195
16,Cc1cc(CNC(=O)N(Cc2ccc(F)cc2F)C2CC2)no1,> 195
17,CN(C)CCO[C@H]1CN(CC2CC2)[C@@H]2CCCO[C@H]12,> 195
18,Cc1ccn(-c2ccc(N3CCCN(Cc4ccccc4)CC3)nn2)n1,> 195
19,C[C@]1(O)CN(CCC(N)=O)CC[C@@H]1Oc1cccc(F)c1,> 195
20,Cn1nccc1CN1CCCC(COc2ccccc2F)C1 (stereo not given),> 195
21,CCOCC1c2c(ncn2C)CCN1C(=O)c1cscn1 (stereo not given),> 195
22,CC(=O)N1CCCC(Cc2nccn2C)C1 (stereo not given),> 195
23,CCN(CC)Cc1ccc(C(=O)N2CCN(CC(C)O)CC2)o1 (stereo not given),> 195
24,CN(C)C(=O)CN1CCOCC2(C1)CN(c1ncccn1)CCO2 (stereo not given),> 195
25,CCn1cc(C(=O)N2CCCC(c3nccs3)C2)cn1 (stereo not given),> 195
26,COCCn1cnnc1C1CCCN(C(C)C)C1 (stereo not given),> 195

row,SMILES,IC50 [µM]
1,CC(O)CN1CCC(=O)N(Cc2ccccc2)Cc2ccccc21 (stereo not given),> 195
2,COc1cccc(F)c1CN1CCC(c2nc(C)cc(C)n2)C1 (stereo not given),> 195
3,CC(=O)N1CCCC(c2ccc(C(N)=O)cn2)C1 (stereo not given),> 195
4,C[S+]([O-])CCNC(=O)Nc1cc(F)ccc1-n1cccn1 (stereo not given),> 195
5,COc1c(CNC2CCCN(c3ncccn3)C2)c(C(C)C)nn1C (stereo not given),> 195
6,Cc1ccc(S(=O)(=O)Nc2ccc(=O)n(C)c2)c(Br)c1,> 195
7,O=C(O)C1(Cc2cc(-c3ccc(F)cc3)no2)CCOCC1,> 195
8,OCc1nnc2n1CCN(c1cnccn1)C2,> 195
9,CCCC1CN(CCOc2ccccc2)C(=O)c2cccnc2O1 (stereo not given),> 195
10,CCn1cnnc1CNC(=O)NC(c1cccs1)C1CCCC1 (stereo not given),> 195
11,CCN(C(=O)c1nc2c(s1)CCCN2C)C(C)C,> 195
12,CCOCC(O)CNc1cncc(Br)c1 (stereo not given),> 195
13,COc1ccc([C@@H]2CN(C(=O)CCn3cccn3)C[C@H]2NC(C)=O)cc1,> 195
14,COc1cc(CNc2cnn(CC(F)F)c2)ccc1O,> 195
15,Cc1nc(C2(O)CCCNCC2)sc1CCOc1ccc(F)cc1 (stereo not given),> 195
16,Cc1nccc(N2CCCC2CCNS(C)(=O)=O)n1 (stereo not given),> 195
17,Cn1cccc1CNC(=O)CCCc1nnc2ccccn12,> 195
18,NC(=O)CN1CCCC(Cc2ccc(N3CCOCC3)nn2)C1 (stereo not given),> 195
19,Nc1nccnc1C1CN(C(=O)c2ccnnc2)CCO1 (stereo not given),> 195
20,O=C1CCCN1CCCC(=O)N1CCCC(Cc2cccnc2)C1 (stereo not given),> 195
21,CN(Cc1cnn(C)c1)C(=O)CN1CCCC(Cn2cncn2)C1 (stereo not given),> 195
22,CN(C)[C@@H]1CN(C(=O)Cc2ccc(F)cc2)[C@@H]2CCCO[C@H]12,> 195
23,NC(=O)C1(CCCc2ccccn2)CCCN(CCO)C1 (stereo not given),> 195
24,Cc1c(C(=O)N2CCC(O)(CN(C)C)C2)c2ccccc2n1C (stereo not given),> 195
25,CS(=O)(=O)NC1CCN(C(=O)NCC2CCCO2)CC1 (stereo not given),> 195
26,O=C(Cn1cccnc1=O)NC(Cc1ccsc1)c1nccs1 (stereo not given),> 195

row,SMILES,IC50 [µM]
1,COCC(=O)N1CCO[C@]2(CCC[C@H]2COC)C1,> 195
2,CO[C@H]1CN(c2ccccc2)S(=O)(=O)[C@@]12CCN(Cc1ccccc1)C2,> 195
3,Cc1ncsc1C(=O)N(Cc1ccccn1)C1CC1,> 195
4,CCS(=O)(=O)NCCCNCc1c(C)nn(C)c1N(C)C,> 195
5,Fc1ccc(-c2nc(CN3CCCC3Cn3cncn3)co2)cc1 (stereo not given),> 195
6,CN1CCC(c2cncc(-c3cccc(Cl)c3)n2)CC1,> 195
7,Cc1cc(C)nc(C2CCN(C(=O)c3cncnc3C)C2)n1 (stereo not given),> 195
8,O=C1CCC(=O)N1c1nn(Cc2c(F)cccc2Cl)cc1Cl,> 195
9,COCc1cncc2c1CCN(C(=O)c1cscn1)C2,> 195
10,O=C(c1cccnc1)N1CCC(c2nc(O)cc(-c3ccncc3)n2)C1 (stereo not given),> 195
11,Cc1cccc(NCc2nc(C)ccc2O)c1,81.8
12,COc1ccc2c(c1)CC(NCCCn1cc(C)cn1)CC2 (stereo not given),> 195
13,CCOC1COC2(CCN(CC3CC3)CC2)C1 (stereo not given),> 195
14,COc1ccccc1C1(C(=O)NCCN2CCCCC2)CCOCC1,> 195
15,COCCNC(=O)c1ccccc1-n1cc(CN)cn1,> 195
16,CS(=O)(=O)N1CCCC(Cc2cncc(Br)c2)CC1 (stereo not given),> 195
17,Cc1ccnc(N2CCC(C(N)=O)CC2)n1,> 195
18,Cc1nc(C2CCN(Cc3ncc[nH]3)CC2)no1,> 195
19,Cc1cc(C)nc(C2CCCNC2)n1 (stereo not given),> 195
20,NC(=O)C1(Cc2ccc(-c3ccccc3)cc2)CCNC1 (stereo not given),> 195
21,CCn1c2c(ccc1=O)CC(NCc1cnn(C)c1)CC2 (stereo not given),> 195
22,c1cn(-c2cncc(C3CCNCC3)n2)cn1,> 195
23,CCC(=O)N1CCc2onc(CNS(C)(=O)=O)c2C1,> 195
24,COC1CN(C(=O)CC2CCCC2)CCC(=O)N(C)c2ccccc21 (stereo not given),> 195
25,O=C(c1ccccn1)N1CCC(Cc2cnc3[nH]ccc3c2)CC1,> 195
26,CS(=O)(=O)NC[C@]1(O)CCN(C(=O)Cc2cccs2)C[C@H]1O,> 195

row,SMILES,IC50 [µM]
1,CN(C)Cc1cncc2c1CCN(Cc1ccoc1)C2,> 195
2,CCc1noc(CN2CCN(c3nccs3)CC2)n1,> 195
3,Cn1cncc1CN1CC[C@](C)(O)[C@@H](Oc2cccc(F)c2)C1,> 195
4,CNCC(=O)N1CCCCC1c1nccc(C)n1 (stereo not given),> 195
5,CCC(NC(=O)c1nn(C)cc1C(=O)O)c1ccc(C)cc1C (stereo not given),> 195
6,CCCS(=O)(=O)N1C[C@@H](c2ccccc2)[C@@]2(CCNC2=O)C1,> 195
7,CC1CCN(CC(O)CNc2ccccn2)CC1 (stereo not given),> 195
8,O=C(O)c1ccccc1CN1CCOC(CCc2ccncn2)C1 (stereo not given),> 195
9,Cc1ccc(CNC(=O)c2ccc(CNS(C)(=O)=O)o2)cc1F,> 195
10,COCCN1CC(=O)c2sc(NC(C)C)nc2C1,> 195
11,NC(=O)CN1CCC(c2cccc(Oc3ccccc3)n2)CC1,> 195
12,Cc1cc(C(F)(F)F)nn1CCCNC(=O)C1CCCO1 (stereo not given),> 195
13,COc1cccc(CN2CC[C@H](NC(C)=O)[C@@H](O)CC2)c1F,> 195
14,CN(Cc1cccnc1)Cc1cncc2c1CCN(c1ccccn1)C2,> 195
15,COCCN1CCC12CCN(C(=O)c1ccc(C)nc1)C2 (stereo not given),> 195
16,O=C(C1CCCCC1)N1CCC(c2n[nH]c3nccnc23)CC1,> 195
17,CN(CCC(=O)N1CCCC(Cc2cccnc2)C1)Cc1cccnc1 (stereo not given),> 195
18,CC(C)c1ccc(-n2ncc(C(=O)NCC3COC(C)(C)O3)c2N)cc1 (stereo not given),> 195
19,CCc1cc(O)nc(C2CCCN2C(=O)COC)n1 (stereo not given),> 195
20,CCOCc1cnc2n1CCN(C(=O)c1ccoc1C)C2C (stereo not given),> 195
21,O=C(NCc1ccccn1)c1cncc(C2CCCN2)n1 (stereo not given),> 195
22,O=C(CCc1cccnc1)N1CCC(c2cnccn2)CC1,> 195
23,CN(Cc1nnc2n1CCC2)C(=O)c1ccc2c(c1)OCCO2,> 195
24,Cc1ccc(CN2C[C@H](NC(=O)c3nccn3C)[C@H]3OCCC[C@H]32)o1,> 195

# Test system: not listed separately
# Experiment: microbe, parasite or virus in culture
# Conditions: Mycobacterium tuberculosis, 72 h, read-out: pIC50 (converted)
row,SMILES,IC50 [µM]
1,CC(=O)N1CCCC(c2ccc(Cc3ccccc3)cn2)C1 (stereo not given),15.3
